Laboratory results published in patent publication US9556165B2 (priority 2012, dated 2017).
In brackets after ≈: the same amount, converted by molar mass.

Tests used:
Assay in all cases: MIC determination, broth microdilution (CLSI)
Type in all cases: cell-based
H. influenzae ATCC 49247 = details: Haemophilus influenzae, ATCC49247, strain 13; read-out: strain 13 MIC
C. freundii K21/3034 = details: Citrobacter freundii, K21/3034, strain 4
E. coli J62 = details: Escherichia coli, J62, strain 17; read-out: strain 17 MIC
E. coli ATCC25922 = details: Escherichia coli, ATCC25922, strain 1
strain 21 = test system: strain 21
K. pneumoniae 60 = details: Klebsiella pneumoniae, 60, strain 2
P. aeruginosa PAO1 = details: Pseudomonas aeruginosa, PAO1, strain 6
E. cloacae 34654 = details: Enterobacter cloacae, 34654, strain 3
S. pneumoniae 113 = details: Streptococcus pneumoniae, 113, strain 14; read-out: strain 14 MIC
strain 19 = test system: strain 19
E. coli J62-TEM-3 = details: Escherichia coli, J62TEM3, read-out: strain 18 MIC, strain 18
S. maltophilia ICB7569 = details: Stenotrophomonas maltophilia, ICB7569, strain 10
M. catarrhalis ICB489 = details: Moraxella catarrhalis, ICB489, strain 12
M. morganii 126/3048 = details: Morganella morganii, 126/3048, strain 5
B. fragilis 6688 = details: Bacteroides fragilis, 6688, strain 15; read-out: strain 15 MIC
A. baumannii ATCC15308 = details: Acinetobacter baumannii, ATCC15308, strain 9
strain 20 = test system: strain 20
S. aureus 133 = details: Staphylococcus aureus, 133, strain 11; read-out: strain 11 MIC
[1] = test system: P. aeruginosa 2297 (AmpC wt); details: Pseudomonas aeruginosa, strain 7
[2] = test system: P. aeruginosa 2297-con (AmpC derepressed); details: Pseudomonas aeruginosa, read-out: strain 8 MIC, strain 8

C[C@H]1[C@H](NC(=O)/C(=N\OCCOc2ccc(C(=N)N)c(O)c2)c2csc(N)n2)C(=O)N1S(=O)(=O)O [Example 2, (2S,3S)-3-{[(2Z)-2-(2-Amino-1,3-thiazol-4-yl)-2-{[2-(4-carbamimidoyl-3-hydroxyphenoxy)ethoxy]imino}acetyl]amino}-2-methyl-4-oxoazetidine-1-sulfonic acid]
MIC (H. influenzae ATCC 49247): 0.5 µg/mL (≈ 0.948 µM)
MIC (C. freundii K21/3034): 0.125 µg/mL (≈ 0.237 µM)
MIC (E. coli J62): 0.25 µg/mL (≈ 0.474 µM)
MIC (E. coli ATCC25922): 0.125 µg/mL (≈ 0.237 µM)
MIC (strain 21): 0.25 µg/mL (≈ 0.474 µM)
MIC (K. pneumoniae 60): 0.125 µg/mL (≈ 0.237 µM)
MIC (P. aeruginosa PAO1): 2 µg/mL (≈ 3.79 µM)
MIC (E. cloacae 34654): 0.25 µg/mL (≈ 0.474 µM)
MIC (S. pneumoniae 113): 16 µg/mL (≈ 30.3 µM)
MIC (strain 19): 0.125 µg/mL (≈ 0.237 µM)
MIC (E. coli J62-TEM-3): 32 µg/mL (≈ 60.7 µM)
MIC (S. maltophilia ICB7569): 0.125 µg/mL (≈ 0.237 µM)
MIC (M. catarrhalis ICB489): ≤ 0.063 µg/mL
MIC (M. morganii 126/3048): ≤ 0.063 µg/mL
MIC (B. fragilis 6688): 16 µg/mL (≈ 30.3 µM)
MIC (A. baumannii ATCC15308): 4 µg/mL (≈ 7.58 µM)
MIC (strain 20): 0.125 µg/mL (≈ 0.237 µM)
MIC (S. aureus 133): 0.25 µg/mL (≈ 0.474 µM)

C[C@H]1[C@H](NC(=O)/C(=N\OCCOc2ccc(C(=N)N)cn2)c2csc(N)n2)C(=O)N1S(=O)(=O)O [Example 5, (2S,3S)-3-{[(2Z)-2-(2-Amino-1,3-thiazol-4-yl)-2-({2-[(5-carbamimidoylpyridin-2-yl)oxy]-ethoxy}imino)acetyl]amino}-2-methyl-4-oxoazetidine-1-sulfonic acid]
MIC [1]: 4 µg/mL (≈ 7.8 µM)
MIC (H. influenzae ATCC 49247): 0.5 µg/mL (≈ 0.976 µM)
MIC (C. freundii K21/3034): 0.25 µg/mL (≈ 0.488 µM)
MIC (E. coli J62): 0.5 µg/mL (≈ 0.976 µM)
MIC (E. coli ATCC25922): 0.25 µg/mL (≈ 0.488 µM)
MIC (strain 21): 0.25 µg/mL (≈ 0.488 µM)
MIC (K. pneumoniae 60): ≤ 0.063 µg/mL
MIC [2]: 32 µg/mL (≈ 62.4 µM)
MIC (P. aeruginosa PAO1): 4 µg/mL (≈ 7.8 µM)
MIC (E. cloacae 34654): 0.125 µg/mL (≈ 0.244 µM)
MIC (S. pneumoniae 113): 4 µg/mL (≈ 7.8 µM)
MIC (strain 19): 0.25 µg/mL (≈ 0.488 µM)
MIC (E. coli J62-TEM-3): 16 µg/mL (≈ 31.2 µM)
MIC (M. catarrhalis ICB489): 0.25 µg/mL (≈ 0.488 µM)
MIC (M. morganii 126/3048): 0.125 µg/mL (≈ 0.244 µM)
MIC (B. fragilis 6688): 8 µg/mL (≈ 15.6 µM)
MIC (A. baumannii ATCC15308): 1 µg/mL (≈ 1.95 µM)
MIC (strain 20): 0.25 µg/mL (≈ 0.488 µM)
MIC (S. aureus 133): 0.125 µg/mL (≈ 0.244 µM)

Cc1cc(OCCO/N=C(\C(=O)N[C@@H]2C(=O)N(S(=O)(=O)O)[C@H]2C)c2csc(N)n2)ccc1C(=N)N [Example 14, (2S,3S)-3-{[(2Z)-2-(2-Amino-1,3-thiazol-4-yl)-2-{[2-(4-carbamimidoyl-3-methylphenoxy)ethoxy]imino}acetyl]amino}-2-methyl-4-oxoazetidine-1-sulfonic acid]
MIC [1]: 8 µg/mL (≈ 15.2 µM)
MIC (H. influenzae ATCC 49247): 0.5 µg/mL (≈ 0.951 µM)
MIC (C. freundii K21/3034): 0.25 µg/mL (≈ 0.476 µM)
MIC (E. coli J62): 1 µg/mL (≈ 1.9 µM)
MIC (E. coli ATCC25922): 0.5 µg/mL (≈ 0.951 µM)
MIC (strain 21): 0.5 µg/mL (≈ 0.951 µM)
MIC (K. pneumoniae 60): 1 µg/mL (≈ 1.9 µM)
MIC [2]: 32 µg/mL (≈ 60.9 µM)
MIC (P. aeruginosa PAO1): 4 µg/mL (≈ 7.61 µM)
MIC (E. cloacae 34654): 0.5 µg/mL (≈ 0.951 µM)
MIC (S. pneumoniae 113): 8 µg/mL (≈ 15.2 µM)
MIC (strain 19): 0.5 µg/mL (≈ 0.951 µM)
MIC (E. coli J62-TEM-3): 32 µg/mL (≈ 60.9 µM)
MIC (M. catarrhalis ICB489): 0.25 µg/mL (≈ 0.476 µM)
MIC (M. morganii 126/3048): 0.5 µg/mL (≈ 0.951 µM)
MIC (B. fragilis 6688): 16 µg/mL (≈ 30.4 µM)
MIC (A. baumannii ATCC15308): 2 µg/mL (≈ 3.81 µM)
MIC (strain 20): 0.5 µg/mL (≈ 0.951 µM)
MIC (S. aureus 133): ≤ 0.063 µg/mL

C[C@H]1[C@H](NC(=O)/C(=N\OCC(C)(C)Oc2ccc(C(=N)N)cc2)c2csc(N)n2)C(=O)N1S(=O)(=O)O [Example 17, (2S,3S)-3-{[(2Z)-2-(2-Amino-1,3-thiazol-4-yl)-2-{[2-(4-carbamimidoylphenoxy)-2-methyl-propoxy]imino}acetyl]amino}-2-methyl-4-oxoazetidine-1-sulfonic acid]
MIC [1]: 16 µg/mL (≈ 29.7 µM)
MIC (H. influenzae ATCC 49247): 1 µg/mL (≈ 1.85 µM)
MIC (C. freundii K21/3034): 1 µg/mL (≈ 1.85 µM)
MIC (E. coli J62): 2 µg/mL (≈ 3.71 µM)
MIC (E. coli ATCC25922): 2 µg/mL (≈ 3.71 µM)
MIC (strain 21): 2 µg/mL (≈ 3.71 µM)
MIC (K. pneumoniae 60): 2 µg/mL (≈ 3.71 µM)
MIC [2]: 32 µg/mL (≈ 59.3 µM)
MIC (P. aeruginosa PAO1): 8 µg/mL (≈ 14.8 µM)
MIC (E. cloacae 34654): 2 µg/mL (≈ 3.71 µM)
MIC (S. pneumoniae 113): 2 µg/mL (≈ 3.71 µM)
MIC (strain 19): 1 µg/mL (≈ 1.85 µM)
MIC (E. coli J62-TEM-3): 32 µg/mL (≈ 59.3 µM)
MIC (M. catarrhalis ICB489): 2 µg/mL (≈ 3.71 µM)
MIC (M. morganii 126/3048): ≤ 0.063 µg/mL
MIC (B. fragilis 6688): 4 µg/mL (≈ 7.41 µM)
MIC (A. baumannii ATCC15308): 8 µg/mL (≈ 14.8 µM)
MIC (strain 20): 2 µg/mL (≈ 3.71 µM)
MIC (S. aureus 133): 2 µg/mL (≈ 3.71 µM)
